What is called mortality is the share of the test organisms that died.

What all share (format): functional
In assay [1] the test system is Bursaphelenchus xylophilus. The assay can be described thus: Nematicidal activity against Bursaphelenchus xylophilus assessed as nematode mortality at 2 mg/mL measured 24 hr post dose by microscopy.
For assay [2], the system named is Bursaphelenchus xylophilus. Description: Nematicidal activity against Bursaphelenchus xylophilus assessed as nematode mortality at 0.8 mg/mL measured 24 hr post dose by microscopy.
The subject of assay [3] is Bursaphelenchus xylophilus. The assay can be described thus: Nematicidal activity against Bursaphelenchus xylophilus assessed as nematode mortality at 1 mg/mL measured 24 hr post dose by microscopy.
In assay [4] the test system is Bursaphelenchus xylophilus. Description: Nematicidal activity against Bursaphelenchus xylophilus assessed as nematode mortality at 0.4 mg/mL measured 24 hr post dose by microscopy.
Assay [5] has as its system Bursaphelenchus xylophilus. The assay can be described thus: Nematicidal activity against Bursaphelenchus xylophilus assessed as nematode mortality at 0.6 mg/mL measured 24 hr post dose by microscopy.
In assay [6] the test system is Bursaphelenchus xylophilus. The assay can be described thus: Nematicidal activity against Bursaphelenchus xylophilus assessed as nematode mortality at 0.2 mg/mL measured 24 hr post dose by microscopy.

In the case of `CCCCCCC/C=C/CO`, in assay [1], the mortality at 2000 µg/mL amounted to 100%. For the same compound, the mortality at 800 µg/mL in assay [2] came to 100%. Moreover, the mortality at 1000 µg/mL in assay [3] was 100%. In addition, in assay [4], the mortality at 400 µg/mL amounted to 100%. The mortality at 600 µg/mL in assay [5] was 100%. Besides, the mortality at 200 µg/mL in assay [6] amounted to 98%.
Consider `CC(=O)c1ccccc1` [ACETOPHENONE], for which the mortality at 2000 µg/mL in assay [1] is 5.3%.
With `O=Cc1ccccc1` [BENZALDEHYDE], the mortality at 2000 µg/mL in assay [1] was determined as 100%. Moreover, the mortality at 800 µg/mL in assay [2] is 77.5%. Moreover, the mortality at 1000 µg/mL in assay [3] stood at 94.1%. The mortality at 400 µg/mL in assay [4] stood at 7.4%. In addition, in assay [5], the mortality at 600 µg/mL stood at 45.6%. In addition, in assay [6], the mortality at 200 µg/mL came out at 1.9%.
Turning to `OCc1ccccc1` [BENZYL ALCOHOL], the mortality at 2000 µg/mL in assay [1] came to 3.8%.
As to `OC/C=C/c1ccccc1` [CINNAMIC ALCOHOL], in assay [1], the mortality at 2000 µg/mL was 100%. In addition, the mortality at 800 µg/mL in assay [2] came to 100%. Also, the mortality at 1000 µg/mL in assay [3] is 100%. Further, the mortality at 400 µg/mL in assay [4] was determined as 57.6%. The mortality at 600 µg/mL in assay [5] came to 99.5%. Further, the mortality at 200 µg/mL in assay [6] stood at 11.3%.
Take `C/C=C\c1cc(OC)c(OC)cc1OC` [CIS-ASARONE]: the mortality at 2000 µg/mL in assay [1] amounted to 100%. Moreover, the mortality at 800 µg/mL in assay [2] turned out to be 100%. Moreover, in assay [3], the mortality at 1000 µg/mL was 100%. Besides, the mortality at 400 µg/mL in assay [4] was 47.9%. Also, the mortality at 600 µg/mL in assay [5] amounted to 96.2%. The mortality at 200 µg/mL in assay [6] turned out to be 15.8%.
Consider `CCCCCCCCCC=O` [DECANAL], for which the mortality at 2000 µg/mL in assay [1] was determined as 100%. Moreover, the mortality at 800 µg/mL in assay [2] is 97.3%. In addition, in assay [3], the mortality at 1000 µg/mL is 100%. For the same compound, the mortality at 400 µg/mL in assay [4] worked out at 25.1%. The mortality at 600 µg/mL in assay [5] was determined as 34.2%. The mortality at 200 µg/mL in assay [6] amounted to 3%.
Regarding `CCCCCCCCCCO` [DECANOL], in assay [1], the mortality at 2000 µg/mL was 100%. Moreover, in assay [2], the mortality at 800 µg/mL stood at 100%. Further, the mortality at 1000 µg/mL in assay [3] was 100%. Moreover, the mortality at 400 µg/mL in assay [4] came to 100%. In assay [5], the mortality at 600 µg/mL is 100%. In assay [6], the mortality at 200 µg/mL stood at 100%.
For `CCCCCCCCCCCC=O` [DODECANAL], the mortality at 2000 µg/mL in assay [1] worked out at 100%. In addition, in assay [2], the mortality at 800 µg/mL was determined as 77.8%. In addition, the mortality at 1000 µg/mL in assay [3] amounted to 86.3%. Moreover, the mortality at 400 µg/mL in assay [4] came out at 20.8%. For the same compound, the mortality at 600 µg/mL in assay [5] came out at 37.6%. Besides, the mortality at 200 µg/mL in assay [6] came out at 11.5%.
Turning to `CC(=O)OC/C=C(\C)CCC=C(C)C` [GERANYL ACETATE], the mortality at 2000 µg/mL in assay [1] was determined as 7%.
On to `CCCCCCC=O` [HEPTANAL], for which, in assay [1], the mortality at 2000 µg/mL amounted to 40.8%.
For `OCCCc1ccccc1` [HYDROCINNAMYL ALCOHOL], in assay [1], the mortality at 2000 µg/mL came to 17.2%.
In the case of `CCCCCCCCC=O` [NONANAL], in assay [1], the mortality at 2000 µg/mL worked out at 100%. The mortality at 800 µg/mL in assay [2] was 83.4%. Also, the mortality at 1000 µg/mL in assay [3] was found to be 95.8%. Further, the mortality at 400 µg/mL in assay [4] worked out at 3.6%. For the same compound, the mortality at 600 µg/mL in assay [5] was 59.5%. Further, in assay [6], the mortality at 200 µg/mL stood at 1.1%.
As to `CCCCCCCCC` [NONANE], the mortality at 2000 µg/mL in assay [1] turned out to be 1.7%.
Same read-out and setting: then `C=C/C(C)=C/CC=C(C)C` [OCIMENE], with 16.2%.
With `CCCCCCCC=O` [OCTANAL], the mortality at 2000 µg/mL in assay [1] was 100%. The mortality at 800 µg/mL in assay [2] was determined as 79.3%. Also, the mortality at 1000 µg/mL in assay [3] came to 89%. Further, in assay [4], the mortality at 400 µg/mL amounted to 31.2%. In assay [5], the mortality at 600 µg/mL is 55.2%. Further, the mortality at 200 µg/mL in assay [6] was 3.5%.
In the case of `CC(O)c1ccccc1` (stereo not given) [PHENYL ETHANOL], the mortality at 2000 µg/mL in assay [1] was 3%.
On the same count and under the same terms, then `C=Cc1ccccc1` [STYRENE], with 6.7%; and `C/C=C/c1cc(OC)c(OC)cc1OC` [TRANS-ASARONE], with 12.1%.
For the compound `CCCCCCCCCCC=O` [UNDECANAL], the mortality at 2000 µg/mL in assay [1] worked out at 100%. Also, in assay [2], the mortality at 800 µg/mL came out at 90.5%. Moreover, the mortality at 1000 µg/mL in assay [3] is 98.7%. Besides, in assay [4], the mortality at 400 µg/mL came out at 34.1%. For the same compound, the mortality at 600 µg/mL in assay [5] is 64.1%. Also, in assay [6], the mortality at 200 µg/mL worked out at 17.8%.

Values taken from ChEMBL document CHEMBL3044590, “Nematicidal activity of plant essential oils and components from coriander (Coriandrum sativum), Oriental sweetgum (Liquidambar orientalis), and valerian (Valeriana wallichii) essential oils against pine wood nematode (Bursaphelenchus xylophilus)” (2008).
